Data published in paper PMC6421522, “Designing Dual Inhibitors of Anaplastic Lymphoma Kinase (ALK) and Bromodomain-4 (BRD4) by Tuning Kinase Selectivity” (Journal of Medicinal Chemistry, 2019).

Experiments:
Assay in all cases: KINOMEscan scanEDGE
Assay type in all cases: binding
Details in all cases: read-out: % Control (1µM)
[1] = target: T1, ADCK3 (Homo sapiens, UniProt Q8NI60)
T1 construct: purchased DiscoveRx KINOMEscan (scanEDGE); Thermo Fisher SelectScreen (Z'-LYTE) for PLK-1
Method: (§1) Compound X was assayed at 1 μM in the DiscoveRx KINOMEscan (scanEDGE) assay platform. The results for single-concentration binding interactions are reported as “%Ctrl” (DMSO = 100%Ctrl), where lower numbers indicate stronger hits.

[2] = target: T2, AURKB (Homo sapiens, UniProt Q96GD4)
T2 construct: purchased DiscoveRx KINOMEscan (scanEDGE); Thermo Fisher SelectScreen (Z'-LYTE) for PLK-1
Method: as §1

[3] = target: T3, BTK (Homo sapiens, UniProt Q06187)
T3 construct: purchased DiscoveRx KINOMEscan (scanEDGE); Thermo Fisher SelectScreen (Z'-LYTE) for PLK-1
Method: as §1

[4] = target: T4, PKAC-alpha (Homo sapiens, UniProt P17612)
T4 construct: purchased DiscoveRx KINOMEscan (scanEDGE); Thermo Fisher SelectScreen (Z'-LYTE) for PLK-1
Method: as §1

[5] = target: T5, PIK3C2B (Homo sapiens, UniProt O00750)
T5 construct: purchased DiscoveRx KINOMEscan (scanEDGE); Thermo Fisher SelectScreen (Z'-LYTE) for PLK-1
Method: as §1

[6] = target: T6, ABL1-phosphorylated (Homo sapiens, UniProt P00519)
T6 construct: purchased DiscoveRx KINOMEscan (scanEDGE); Thermo Fisher SelectScreen (Z'-LYTE) for PLK-1
Method: as §1

[7] = target: T7, CSNK1G2 (Homo sapiens, UniProt P78368)
T7 construct: purchased DiscoveRx KINOMEscan (scanEDGE); Thermo Fisher SelectScreen (Z'-LYTE) for PLK-1
Method: as §1

[8] = target: T8, AKT2 (Homo sapiens, UniProt P31751)
T8 construct: purchased DiscoveRx KINOMEscan (scanEDGE); Thermo Fisher SelectScreen (Z'-LYTE) for PLK-1
Method: as §1

[9] = target: T9, AKT1 (Homo sapiens, UniProt P31749)
T9 construct: purchased DiscoveRx KINOMEscan (scanEDGE); Thermo Fisher SelectScreen (Z'-LYTE) for PLK-1
Method: as §1

[10] = target: T10, RET (Homo sapiens, UniProt P07949)
T10 construct: purchased DiscoveRx KINOMEscan (scanEDGE); Thermo Fisher SelectScreen (Z'-LYTE) for PLK-1
Method: as §1

[11] = target: T11, KIT(V559D,T670I) (Homo sapiens, UniProt P10721, T670I/V559D)
T11 construct: purchased DiscoveRx KINOMEscan (scanEDGE); Thermo Fisher SelectScreen (Z'-LYTE) for PLK-1
Method: as §1

[12] = target: T12, ERBB2 (Homo sapiens, UniProt P04626)
T12 construct: purchased DiscoveRx KINOMEscan (scanEDGE); Thermo Fisher SelectScreen (Z'-LYTE) for PLK-1
Method: as §1

[13] = target: T13, FAK (Homo sapiens, UniProt Q05397)
T13 construct: purchased DiscoveRx KINOMEscan (scanEDGE); Thermo Fisher SelectScreen (Z'-LYTE) for PLK-1
Method: as §1

[14] = target: T14, KIT(D816V) (Homo sapiens, UniProt P10721, D816V)
T14 construct: purchased DiscoveRx KINOMEscan (scanEDGE); Thermo Fisher SelectScreen (Z'-LYTE) for PLK-1
Method: as §1

[15] = target: T15, PDPK1 (Homo sapiens, UniProt O15530)
T15 construct: purchased DiscoveRx KINOMEscan (scanEDGE); Thermo Fisher SelectScreen (Z'-LYTE) for PLK-1
Method: as §1

[16] = target: T16, ROCK2 (Homo sapiens, UniProt O75116)
T16 construct: purchased DiscoveRx KINOMEscan (scanEDGE); Thermo Fisher SelectScreen (Z'-LYTE) for PLK-1
Method: as §1

[17] = target: T17, PAK1 (Homo sapiens, UniProt Q13153)
T17 construct: purchased DiscoveRx KINOMEscan (scanEDGE); Thermo Fisher SelectScreen (Z'-LYTE) for PLK-1
Method: as §1

[18] = target: T18, EPHA2 (Homo sapiens, UniProt P29317)
T18 construct: purchased DiscoveRx KINOMEscan (scanEDGE); Thermo Fisher SelectScreen (Z'-LYTE) for PLK-1
Method: as §1

[19] = target: T19, RAF1 (Homo sapiens, UniProt P04049)
T19 construct: purchased DiscoveRx KINOMEscan (scanEDGE); Thermo Fisher SelectScreen (Z'-LYTE) for PLK-1
Method: as §1

[20] = target: T20, TGFBR1 (Homo sapiens, UniProt P36897)
T20 construct: purchased DiscoveRx KINOMEscan (scanEDGE); Thermo Fisher SelectScreen (Z'-LYTE) for PLK-1
Method: as §1

[21] = target: T21, MLK1 (Homo sapiens, UniProt P80192)
T21 construct: purchased DiscoveRx KINOMEscan (scanEDGE); Thermo Fisher SelectScreen (Z'-LYTE) for PLK-1
Method: as §1

[22] = target: T22, AXL (Homo sapiens, UniProt P30530)
T22 construct: purchased DiscoveRx KINOMEscan (scanEDGE); Thermo Fisher SelectScreen (Z'-LYTE) for PLK-1
Method: as §1

[23] = target: T23, ZAP70 (Homo sapiens, UniProt P43403)
T23 construct: purchased DiscoveRx (DiscoverX)
Method: as §1

[24] = target: T24, CDK11 (Homo sapiens, UniProt Q9BWU1)
T24 construct: purchased DiscoveRx KINOMEscan (scanEDGE); Thermo Fisher SelectScreen (Z'-LYTE) for PLK-1
Method: as §1

[25] = target: T25, CDK7 (Homo sapiens, UniProt P50613)
T25 construct: purchased DiscoveRx KINOMEscan (scanEDGE); Thermo Fisher SelectScreen (Z'-LYTE) for PLK-1
Method: as §1

[26] = target: T26, DYRK1B (Homo sapiens, UniProt Q9Y463)
T26 construct: purchased DiscoveRx KINOMEscan (scanEDGE); Thermo Fisher SelectScreen (Z'-LYTE) for PLK-1
Method: as §1

[27] = target: T27, ERK1 (Homo sapiens, UniProt P27361)
T27 construct: purchased DiscoveRx KINOMEscan (scanEDGE); Thermo Fisher SelectScreen (Z'-LYTE) for PLK-1
Method: as §1

[28] = target: T28, MAPKAPK2 (Homo sapiens, UniProt P49137)
T28 construct: purchased DiscoveRx KINOMEscan (scanEDGE); Thermo Fisher SelectScreen (Z'-LYTE) for PLK-1
Method: as §1

[29] = target: T29, YANK3 (Homo sapiens, UniProt Q86UX6)
T29 construct: purchased DiscoveRx (DiscoverX)
Method: as §1

[30] = target: T30, PCTK1 (Homo sapiens, UniProt Q00536)
T30 construct: purchased DiscoveRx KINOMEscan (scanEDGE); Thermo Fisher SelectScreen (Z'-LYTE) for PLK-1
Method: as §1

[31] = target: T31, PLK4 (Homo sapiens, UniProt O00444)
T31 construct: purchased DiscoveRx KINOMEscan (scanEDGE); Thermo Fisher SelectScreen (Z'-LYTE) for PLK-1
Method: as §1

[32] = target: T32, EGFR(L858R) (Homo sapiens, UniProt P00533, L858R)
T32 construct: purchased DiscoveRx KINOMEscan (scanEDGE); Thermo Fisher SelectScreen (Z'-LYTE) for PLK-1
Method: as §1

[33] = target: T33, GSK3B (Homo sapiens, UniProt P49841)
T33 construct: purchased DiscoveRx KINOMEscan (scanEDGE); Thermo Fisher SelectScreen (Z'-LYTE) for PLK-1
Method: as §1

[34] = target: T34, SNARK (Homo sapiens, UniProt Q9H093)
T34 construct: purchased DiscoveRx KINOMEscan (scanEDGE); Thermo Fisher SelectScreen (Z'-LYTE) for PLK-1
Method: as §1

[35] = target: T35, KIT (Homo sapiens, UniProt P10721)
T35 construct: purchased DiscoveRx (DiscoverX)
Method: as §1

[36] = target: T36, PDGFRB (Homo sapiens, UniProt P09619)
T36 construct: purchased DiscoveRx KINOMEscan (scanEDGE); Thermo Fisher SelectScreen (Z'-LYTE) for PLK-1
Method: as §1

[37] = target: T37, LKB1 (Homo sapiens, UniProt Q15831)
T37 construct: purchased DiscoveRx KINOMEscan (scanEDGE); Thermo Fisher SelectScreen (Z'-LYTE) for PLK-1
Method: as §1

[38] = target: T38, IKK-beta (Homo sapiens, UniProt O14920)
T38 construct: purchased DiscoveRx KINOMEscan (scanEDGE); Thermo Fisher SelectScreen (Z'-LYTE) for PLK-1
Method: as §1

[39] = target: T39, p38-alpha (Homo sapiens, UniProt Q16539)
T39 construct: purchased DiscoveRx KINOMEscan (scanEDGE); Thermo Fisher SelectScreen (Z'-LYTE) for PLK-1
Method: as §1

[40] = target: T40, ACVR1B (Homo sapiens, UniProt P36896)
T40 construct: purchased DiscoveRx KINOMEscan (scanEDGE); Thermo Fisher SelectScreen (Z'-LYTE) for PLK-1
Method: as §1

T40 sequence (P36896 24-505): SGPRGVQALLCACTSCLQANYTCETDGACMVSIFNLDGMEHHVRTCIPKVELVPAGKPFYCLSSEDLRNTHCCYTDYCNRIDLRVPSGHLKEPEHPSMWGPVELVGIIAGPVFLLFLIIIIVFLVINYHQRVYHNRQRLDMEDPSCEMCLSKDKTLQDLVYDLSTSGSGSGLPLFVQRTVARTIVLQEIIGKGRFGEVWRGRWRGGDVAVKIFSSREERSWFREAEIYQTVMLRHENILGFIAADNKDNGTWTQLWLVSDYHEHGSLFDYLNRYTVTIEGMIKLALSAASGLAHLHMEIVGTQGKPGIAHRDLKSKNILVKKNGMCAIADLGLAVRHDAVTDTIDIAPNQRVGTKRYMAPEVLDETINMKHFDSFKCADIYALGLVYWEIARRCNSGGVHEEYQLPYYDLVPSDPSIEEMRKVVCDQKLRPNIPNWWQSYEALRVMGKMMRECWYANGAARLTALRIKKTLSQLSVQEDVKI
T10 sequence (P07949 29-1114): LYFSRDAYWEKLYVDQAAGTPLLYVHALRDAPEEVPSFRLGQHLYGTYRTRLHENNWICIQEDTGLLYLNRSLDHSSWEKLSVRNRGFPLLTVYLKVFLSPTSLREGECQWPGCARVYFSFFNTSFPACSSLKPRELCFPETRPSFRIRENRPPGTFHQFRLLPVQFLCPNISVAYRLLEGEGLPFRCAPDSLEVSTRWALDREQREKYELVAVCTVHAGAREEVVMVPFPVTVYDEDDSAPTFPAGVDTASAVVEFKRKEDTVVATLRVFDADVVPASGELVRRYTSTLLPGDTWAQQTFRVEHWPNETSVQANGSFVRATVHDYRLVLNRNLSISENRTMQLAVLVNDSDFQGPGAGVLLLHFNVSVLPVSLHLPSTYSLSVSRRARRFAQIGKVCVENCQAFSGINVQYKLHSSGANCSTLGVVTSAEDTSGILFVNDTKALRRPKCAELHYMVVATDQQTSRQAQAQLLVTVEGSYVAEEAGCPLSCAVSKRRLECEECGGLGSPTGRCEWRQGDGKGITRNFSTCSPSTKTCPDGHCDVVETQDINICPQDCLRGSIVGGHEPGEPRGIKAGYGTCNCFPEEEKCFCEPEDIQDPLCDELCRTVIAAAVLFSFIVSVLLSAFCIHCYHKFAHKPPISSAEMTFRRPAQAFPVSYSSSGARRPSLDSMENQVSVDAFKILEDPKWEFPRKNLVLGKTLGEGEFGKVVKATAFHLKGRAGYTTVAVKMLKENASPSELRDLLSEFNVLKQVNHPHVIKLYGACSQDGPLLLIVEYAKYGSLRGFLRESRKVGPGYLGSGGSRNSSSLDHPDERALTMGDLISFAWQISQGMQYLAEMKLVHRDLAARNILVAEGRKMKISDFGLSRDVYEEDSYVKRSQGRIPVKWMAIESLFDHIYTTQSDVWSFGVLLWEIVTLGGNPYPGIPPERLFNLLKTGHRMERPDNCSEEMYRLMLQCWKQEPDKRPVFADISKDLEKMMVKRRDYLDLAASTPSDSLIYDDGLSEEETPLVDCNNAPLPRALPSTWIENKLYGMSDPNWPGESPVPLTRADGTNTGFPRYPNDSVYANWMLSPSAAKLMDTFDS
T9 sequence (P31749 whole entry): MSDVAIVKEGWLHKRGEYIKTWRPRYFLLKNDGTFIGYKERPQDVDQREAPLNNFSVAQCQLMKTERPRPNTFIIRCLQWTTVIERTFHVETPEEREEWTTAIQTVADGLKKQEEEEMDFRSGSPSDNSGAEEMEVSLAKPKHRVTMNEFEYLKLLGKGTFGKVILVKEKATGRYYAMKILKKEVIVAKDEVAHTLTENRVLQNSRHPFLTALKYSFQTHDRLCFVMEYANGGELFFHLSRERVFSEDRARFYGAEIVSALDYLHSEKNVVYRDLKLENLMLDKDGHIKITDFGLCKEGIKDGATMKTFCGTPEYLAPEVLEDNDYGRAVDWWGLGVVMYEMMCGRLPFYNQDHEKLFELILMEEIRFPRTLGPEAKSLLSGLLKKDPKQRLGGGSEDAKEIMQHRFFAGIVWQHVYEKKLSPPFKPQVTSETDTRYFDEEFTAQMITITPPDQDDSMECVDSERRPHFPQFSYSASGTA
T32 sequence (P00533 25-1210 L858R): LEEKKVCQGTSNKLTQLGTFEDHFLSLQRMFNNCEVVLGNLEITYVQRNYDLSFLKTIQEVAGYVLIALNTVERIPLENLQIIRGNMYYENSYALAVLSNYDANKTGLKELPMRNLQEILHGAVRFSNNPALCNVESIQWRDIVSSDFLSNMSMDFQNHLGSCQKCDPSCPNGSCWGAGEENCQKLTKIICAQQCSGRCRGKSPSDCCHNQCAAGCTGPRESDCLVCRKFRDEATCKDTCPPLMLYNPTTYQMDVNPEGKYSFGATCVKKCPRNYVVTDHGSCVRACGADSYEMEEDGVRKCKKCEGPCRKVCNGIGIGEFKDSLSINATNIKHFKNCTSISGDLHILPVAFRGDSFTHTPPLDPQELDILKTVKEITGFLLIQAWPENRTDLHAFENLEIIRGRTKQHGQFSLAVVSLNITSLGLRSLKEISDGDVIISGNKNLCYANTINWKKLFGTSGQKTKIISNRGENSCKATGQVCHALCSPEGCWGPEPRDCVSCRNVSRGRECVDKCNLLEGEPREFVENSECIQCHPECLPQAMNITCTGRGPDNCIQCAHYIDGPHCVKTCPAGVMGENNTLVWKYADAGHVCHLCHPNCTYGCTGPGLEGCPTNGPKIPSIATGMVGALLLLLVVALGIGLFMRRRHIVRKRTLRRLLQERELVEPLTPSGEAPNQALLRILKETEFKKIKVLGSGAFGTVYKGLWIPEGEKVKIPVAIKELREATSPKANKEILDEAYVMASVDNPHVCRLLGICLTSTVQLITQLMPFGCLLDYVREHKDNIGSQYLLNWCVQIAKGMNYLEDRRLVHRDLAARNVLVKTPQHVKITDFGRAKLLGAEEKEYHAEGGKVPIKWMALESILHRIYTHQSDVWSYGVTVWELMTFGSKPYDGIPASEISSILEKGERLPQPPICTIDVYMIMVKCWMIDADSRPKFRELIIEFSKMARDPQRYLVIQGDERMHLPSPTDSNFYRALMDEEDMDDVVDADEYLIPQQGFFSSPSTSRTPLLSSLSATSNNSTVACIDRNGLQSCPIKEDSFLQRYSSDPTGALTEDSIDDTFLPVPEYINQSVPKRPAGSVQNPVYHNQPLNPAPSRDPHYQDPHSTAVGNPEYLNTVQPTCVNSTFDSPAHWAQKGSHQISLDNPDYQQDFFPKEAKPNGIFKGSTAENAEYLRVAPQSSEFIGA
T6 sequence (P00519 whole entry): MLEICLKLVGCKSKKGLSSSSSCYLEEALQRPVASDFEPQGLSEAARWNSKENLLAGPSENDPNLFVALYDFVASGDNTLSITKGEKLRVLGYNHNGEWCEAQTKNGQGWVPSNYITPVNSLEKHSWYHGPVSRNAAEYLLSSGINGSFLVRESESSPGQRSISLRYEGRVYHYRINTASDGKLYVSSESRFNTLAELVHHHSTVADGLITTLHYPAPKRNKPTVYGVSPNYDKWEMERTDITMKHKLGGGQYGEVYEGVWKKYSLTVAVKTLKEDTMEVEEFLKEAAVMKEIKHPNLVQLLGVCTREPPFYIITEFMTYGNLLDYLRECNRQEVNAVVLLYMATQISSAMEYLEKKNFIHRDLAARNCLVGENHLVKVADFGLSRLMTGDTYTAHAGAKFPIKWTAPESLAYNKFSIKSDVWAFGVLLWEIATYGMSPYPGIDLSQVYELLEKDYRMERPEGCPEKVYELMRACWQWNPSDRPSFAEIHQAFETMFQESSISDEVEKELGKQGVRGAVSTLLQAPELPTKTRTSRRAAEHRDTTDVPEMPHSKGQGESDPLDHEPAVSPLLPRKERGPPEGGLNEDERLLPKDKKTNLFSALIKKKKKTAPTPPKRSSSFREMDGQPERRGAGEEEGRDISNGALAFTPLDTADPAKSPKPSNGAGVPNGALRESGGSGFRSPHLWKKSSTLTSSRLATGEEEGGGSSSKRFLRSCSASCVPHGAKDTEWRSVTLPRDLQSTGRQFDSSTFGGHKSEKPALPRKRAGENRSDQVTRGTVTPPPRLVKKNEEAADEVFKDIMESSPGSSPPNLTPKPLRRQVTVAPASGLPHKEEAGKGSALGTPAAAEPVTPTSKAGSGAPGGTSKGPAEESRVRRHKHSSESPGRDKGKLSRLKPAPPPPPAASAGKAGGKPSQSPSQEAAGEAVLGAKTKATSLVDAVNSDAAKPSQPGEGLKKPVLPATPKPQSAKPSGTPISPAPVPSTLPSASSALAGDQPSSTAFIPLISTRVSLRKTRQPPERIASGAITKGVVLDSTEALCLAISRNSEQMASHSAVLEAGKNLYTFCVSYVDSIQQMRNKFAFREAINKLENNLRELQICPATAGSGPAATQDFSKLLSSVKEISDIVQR
T2 sequence (Q96GD4 whole entry): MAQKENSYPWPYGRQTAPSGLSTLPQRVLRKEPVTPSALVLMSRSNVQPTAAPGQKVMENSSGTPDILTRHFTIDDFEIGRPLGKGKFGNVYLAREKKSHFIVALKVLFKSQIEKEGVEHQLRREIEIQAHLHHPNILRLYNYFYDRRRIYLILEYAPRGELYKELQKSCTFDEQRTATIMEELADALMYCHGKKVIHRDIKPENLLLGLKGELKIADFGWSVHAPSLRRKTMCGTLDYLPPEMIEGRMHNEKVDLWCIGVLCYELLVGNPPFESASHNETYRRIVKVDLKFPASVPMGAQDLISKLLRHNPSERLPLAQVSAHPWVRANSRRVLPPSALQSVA
T25 sequence (P50613 whole entry): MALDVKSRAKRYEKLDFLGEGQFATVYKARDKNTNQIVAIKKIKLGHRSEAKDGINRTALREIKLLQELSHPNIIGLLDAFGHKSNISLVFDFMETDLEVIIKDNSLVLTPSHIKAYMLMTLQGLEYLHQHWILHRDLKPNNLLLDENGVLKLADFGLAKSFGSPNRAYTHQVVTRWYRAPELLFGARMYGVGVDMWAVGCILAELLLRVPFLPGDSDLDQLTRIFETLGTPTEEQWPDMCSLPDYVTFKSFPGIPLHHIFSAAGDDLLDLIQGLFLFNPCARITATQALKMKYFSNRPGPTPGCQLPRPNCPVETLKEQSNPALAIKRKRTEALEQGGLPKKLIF

CCOc1cc(C2CCN(C)CC2)ccc1Nc1ncc2c(n1)N(Cc1cc(C)cs1)[C@H](CC)C(=O)N2C [16k, (R)-2-((2-Ethoxy-4-(1-methylpiperidin-4-yl)phenyl)amino)-7-ethyl-5-methyl-8-((4-methylthiophen-2-yl)methyl)-7,8-dihydropteridin-6(5H)-one]
remaining binding at 1 µM [1]: 100%
remaining binding at 1 µM [2]: 86%
remaining binding at 1 µM [3]: 100%
remaining binding at 1 µM [4]: 100%
remaining binding at 1 µM [5]: 88%
remaining binding at 1 µM [6]: 100%
remaining binding at 1 µM [7]: 100%
remaining binding at 1 µM [8]: 100%
remaining binding at 1 µM [9]: 96%
remaining binding at 1 µM [10]: 99%
remaining binding at 1 µM [11]: 100%
remaining binding at 1 µM [12]: 100%
remaining binding at 1 µM [13]: 60%
remaining binding at 1 µM [14]: 100%
remaining binding at 1 µM [15]: 98%
remaining binding at 1 µM [16]: 100%
remaining binding at 1 µM [17]: 100%
remaining binding at 1 µM [18]: 100%
remaining binding at 1 µM [19]: 100%
remaining binding at 1 µM [20]: 94%
remaining binding at 1 µM [21]: 100%
remaining binding at 1 µM [22]: 98%
remaining binding at 1 µM [23]: 94%
remaining binding at 1 µM [24]: 93%
remaining binding at 1 µM [25]: 88%
remaining binding at 1 µM [26]: 63%
remaining binding at 1 µM [27]: 100%
remaining binding at 1 µM [28]: 100%
remaining binding at 1 µM [29]: 100%
remaining binding at 1 µM [30]: 95%
remaining binding at 1 µM [31]: 100%
remaining binding at 1 µM [32]: 69%
remaining binding at 1 µM [33]: 82%
remaining binding at 1 µM [34]: 100%
remaining binding at 1 µM [35]: 100%
remaining binding at 1 µM [36]: 100%
remaining binding at 1 µM [37]: 82%
remaining binding at 1 µM [38]: 100%
remaining binding at 1 µM [39]: 92%
remaining binding at 1 µM [40]: 85%
